{"source": "patent US11413267B2", "about": "“Methods and compositions for inhibition of ATR and FANCD2 activation” (priority 2012, dated 2022)", "key": {"[1]": {"test_system": "ATR-dependent Chk1 phosphorylation", "assay": "Immunoblot of DNA damage-induced Chk1 phosphorylation", "type": "cell-based, human", "details": "after H2O2 damage", "from_the_text": "(§1) We hypothesized that genes with functions associated with DNA damage checkpoints and/or DNA repair might be targeted by benzopyran-4-one derivatives. To test this hypothesis, we assessed the effects of benzopyran-4-one derivatives on DDR induced by H2O2. […] In response to DNA double-strand breaks (DSBs), FANCD2 is known to be monoubiquitinated on K561 (FANCD2-Ub) in an ATR-dependent manner to stimulate repair (Andreassen P R, et al. Genes Dev 2004).\n(§2) To elucidate the specificity of the benzopyran-4-one derivatives inhibition on ATR-mediated signaling, we compared the change between cells treated with benzopyran-4-one derivatives or the ATM-specific inhibitor KU55933 before the induction of DDR.\n(§3) MDA-MB-231 (breast adenocarcinoma; ATCC HTB-26, BCRC 60425) and A549 (lung adenocarcinoma; ATCC CCL-185, BCRC 60074) human cell lines were purchased from Bioresource Collection and Research Center (BCRC, Hsinchu, Taiwan), and were authenticated by American Type Culture Collection (ATCC, Manassas, Va.). U2OS (osteosarcoma), HeLa (cervical adenocarcinoma), and HEK 293T (embryonic kidney cells) human cell lines were provided by Dr. Sheau-Yann Shieh (Institute of Molecular Biology, Academia Sinica, Taipei, Taiwan). Cells were maintained in Dulbecco's modified Eagle's medium (DMEM, Sigma-Aldrich) supplemented with 10% fetal bovine serum (FBS) (Gibco). […] For UV irradiation treatment, the cells were irradiated for 10 J/m^2 by a cross-linker (UVP) 1 h prior to analysis.\n(§4) Cell lysate preparations, gel electrophoresis, and immunoblotting were performed as previously described (23). The binding of primary antibodies were detected by horseradish peroxidase-coupled secondary antibodies (Jackson ImmunoResearch) followed by enhanced chemiluminescence (ECL) (Millipore). The images of non-saturated bands were captured using a luminescent image analyzer (LAS-4000 mini; Fujifilm). The antibodies used in this study are listed in supplementary materials."}, "DNA replication": {"test_system": "DNA replication", "assay": "EdU incorporation assay of DNA replication", "type": "cell-based", "details": "10 μM", "description": "DNA replication was measured using a Click-it EdU assay kit, which is based on incorporation of the thymidine analogue 5-ethynyl-2'-deoxyuridine (EdU) into DNA during replication (Invitrogen). Then, 10 μM EdU was added to the cell culture medium 30 min before the cells were harvested and fixed in 4% paraformaldehyde. After cycloaddition, EdU was detected with Alexa Fluor 647 using click reaction catalyzed by Cu (II), and the DNA content was stained by CellCycle 405-blue. […] An FITC Annexin V apoptosis detection kit was used to characterize the phenotype of cell death based on PI and Annexin V double staining (BD Pharmingen, San Diego, Calif.). Fluorescence-labeled cells were subsequently analyzed by the BD LSR II flow cytometer with a suitable selection of excitation and emission wavelengths. The percentages of different fluorescent cells were analyzed using WinMDI Ver. 2.9."}, "[2]": {"test_system": "ATM-mediated Chk2 phosphorylation", "assay": "Immunoblot of DNA damage-induced Chk2 phosphorylation / ATM autophosphorylation", "type": "cell-based, human", "details": "after H2O2 damage", "from_the_text": "as §1, §2, §3, §4"}, "MDA-MB-231 cells": {"test_system": "MDA-MB-231 cells", "assay": "Mitotic entry assay (phospho-histone H3 Ser10, nocodazole trap, flow cytometry)", "type": "cell-based, human", "from_the_text": "Of these, the G2/M checkpoint involves ATM and ATR in collaboration, whereas the S/M checkpoint is mediated solely by ATR. To maintain genetic integrity, ATR can prevent premature mitotic entry in the event of incomplete DNA replication or unrepaired DNA damage. In order to evaluate the effect of benzopyran-4-one derivatives on these ATR-associated DNA damage checkpoints, we observed the effect of benzopyran-4-one derivatives on mitotic entry following hydroxyurea or cisplatin treatment.\nDNA replication was measured using a Click-it EdU assay kit, which is based on incorporation of the thymidine analogue 5-ethynyl-2′-deoxyuridine (EdU) into DNA during replication (Invitrogen). Then, 10 μM EdU was added to the cell culture medium 30 min before the cells were harvested and fixed in 4% paraformaldehyde. After cycloaddition, EdU was detected with Alexa Fluor 647 using click reaction catalyzed by Cu (II), and the DNA content was stained by CellCycle 405-blue. To assay the mitotic entry, cells were treated with the indicated drugs and trapped in 70 nM nocodazole for 16 h, and antibodies against phospho-histone H3 Ser10 and PI were used to stain the mitotic cells and DNA content, respectively. An FITC Annexin V apoptosis detection kit was used to characterize the phenotype of cell death based on PI and Annexin V double staining (BD Pharmingen, San Diego, Calif.). Fluorescence-labeled cells were subsequently analyzed by the BD LSR II flow cytometer with a suitable selection of excitation and emission wavelengths. The percentages of different fluorescent cells were analyzed using WinMDI Ver. 2.9."}, "CHO cells": {"test_system": "CHO cells", "assay": "In vitro chromosome aberration test", "type": "cell-based, Chinese Hamster", "details": "2.00 μM", "description": "To test this hypothesis, we investigated the cytogenetic effect of Protoapigenone (I-1) on CHO cells (FIG. 1).\nIn brief, 5×10^5 Chinese Hamster Ovary (CHO) cells were seeded in 60-mm dishes 1 d before the experiment. Protoapigenone (I-1)-induced structural chromosomal changes after 20 h were compared with that of the cells cultured in 2 μM mitomycin C. At 18 h after Protoapigenone (I-1), 0.1 μg/mL colchicine was added for 2 h, and metaphase cells were collected by shaking them off the dishes. Mitotic cells were treated with 0.5% KCl for 10 min and fixed with a 3:1 mixture of methanol: glacial acetic acid. The cells were then spread on slides for chromosome staining with 5% Giemsa solution. We then analyzed the chromosome structure of 200 well-spread metaphase cells (100 metaphase cells/experiment) under a 100× oil immersion objective."}, "[3]": {"details": "DNA-damaging agent alone (Control group column)"}}, "data": [{"smiles": "O=c1cc(-c2cccc3c2Sc2ccccc2S3)oc(N2CCOCC2)c1", "note": "[KU55933]", "values": [{"measurement": "Effect on ATR-mediated Chk1 phosphorylation", "setting": "[1]", "result": "small"}, {"measurement": "Percentage of EdU incorporation compared with control group", "setting": "DNA replication", "result": "not"}, {"measurement": "ATM-mediated Chk2 phosphorylation", "setting": "[2]", "result": "strongly inhibited"}, {"measurement": "Percentage of mitotic cells in cisplatin-treated cells (G2/M checkpoint), in words", "setting": "MDA-MB-231 cells; cisplatin-treated cells", "result": "increased the percentage of mitotic cells"}, {"measurement": "The percentage of mitotic cells", "setting": "MDA-MB-231 cells; compound alone (Control group, no DNA-damaging agent)", "result": "20.29 ± 1.48", "unit": "%"}, {"measurement": "The percentage of mitotic cells", "setting": "MDA-MB-231 cells; compound with Cisplatin (G2/M checkpoint)", "result": "9.70 ± 0.25", "unit": "%"}, {"measurement": "The percentage of mitotic cells", "setting": "MDA-MB-231 cells; compound with Hydroxyurea (S/M checkpoint)", "result": "11.19 ± 0.76", "unit": "%"}]}, {"smiles": "NC(=O)NO", "note": "[Hydroxyurea]", "values": [{"measurement": "The percentage of mitotic cells", "setting": "MDA-MB-231 cells; [3]", "result": "4.46 ± 0.67", "unit": "%"}]}, {"smiles": "CO[C@@]12[C@H](COC(N)=O)C3=C(C(=O)C(C)=C(N)C3=O)N1C[C@@H]1N[C@@H]12", "note": "[Mitomycin C, reference compound]", "values": [{"measurement": "Chromatid break (No.)", "setting": "CHO cells; 200 cells per treatment", "result": 2, "unit": "No."}, {"measurement": "Chromatid deletion", "setting": "CHO cells; 200 cells per treatment", "result": 3, "unit": "No."}, {"measurement": "Complex rerrangement", "setting": "CHO cells; 200 cells per treatment", "result": 2, "unit": "No."}, {"measurement": "Dicentric", "setting": "CHO cells; 200 cells per treatment", "result": 1, "unit": "No."}, {"measurement": "Polyploid", "setting": "CHO cells; 200 cells per treatment", "result": 0, "unit": "No."}, {"measurement": "Pulverized cell", "setting": "CHO cells; 200 cells per treatment", "result": 5, "unit": "No."}, {"measurement": "Quadriradial", "setting": "CHO cells; 200 cells per treatment", "result": 29, "unit": "No."}, {"measurement": "Ring", "setting": "CHO cells; 200 cells per treatment", "result": 0, "unit": "No."}, {"measurement": "Triradial", "setting": "CHO cells; 200 cells per treatment", "result": 42, "unit": "No."}, {"measurement": "Average aberrant metaphases (%)", "setting": "CHO cells; * significant vs. control by t-test", "result": "42.0 * %"}]}, {"smiles": "N.N.[Cl][Pt][Cl]", "note": "[Cisplatin]", "values": [{"measurement": "The percentage of mitotic cells", "setting": "MDA-MB-231 cells; [3]", "result": "5.35 ± 0.07", "unit": "%"}]}]}
